The results in this text go back to patent publication US11149035B2, “Chemical compounds as H—PGDS inhibitors” (GlaxoSmithKline Intellectual Property Development Limited, priority 2017, dated 2021).

For the test, the target named is T1, haematopoietic prostaglandin D synthase (H-PGDS) (Homo sapiens, UniProt O60760).
T1 construct: Full length human H-PGDS cDNA (Invitrogen Ultimate ORF IOH13026) was amplified by PCR; 6-His (N); TEV protease cleavage site (N); made in house; host or cells: E. coli BL21 (DE3*)
T1 sequence (O60760 whole entry): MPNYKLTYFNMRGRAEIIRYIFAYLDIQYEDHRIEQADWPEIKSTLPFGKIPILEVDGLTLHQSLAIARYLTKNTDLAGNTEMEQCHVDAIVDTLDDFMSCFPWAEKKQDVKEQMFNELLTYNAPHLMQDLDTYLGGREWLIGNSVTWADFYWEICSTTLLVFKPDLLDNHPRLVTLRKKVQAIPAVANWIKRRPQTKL
The test can be described thus: H-PGDS RapidFire high throughput mass spectrometry assay (conversion of PGH2 to PGD2). Type of test: biochemical. The conditions noted are these: 10 nM H-PGDS, PGH2 formed in situ by COX-2 from arachidonic acid; four parameter curve fit; read-out: Potency Range (mean pIC50) (converted). A digest of the protocol: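 His-tagged full-length human H-PGDS from E. coli converts PGH2, generated in situ at ~10 μM from arachidonic acid by FLAG-tagged human COX-2 from Sf9 cells. RapidFire SPE-triple quadrupole MS measures PGD2 against PGF2α as substrate surrogate; percent conversion is calculated.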

With `C[C@@H]1CCN1c1ccc2cc(C(=O)N[C@H]3CC[C@H](C(C)(C)O)CC3)cnc2n1` [Example 8, N-(trans-4-(2-Hydroxypropan-2-yl)cyclohexyl)-7-((R)-2-methylazetidin-1-yl)-1,8-naphthyridine-3-carboxamide], the IC50 is 100 to 1000 nM.

Regarding `C[C@H]1CCN1c1nc2ncc(C(=O)N[C@H]3C[C@@](C)(O)C3)cc2cc1Cl` [Example 63, 6-chloro-N-((1s,3R)-3-hydroxy-3-methylcyclobutyl)-7-((S)-2-methylazetidin-1-yl)-1,8-naphthyridine-3-carboxamide], the IC50 was below 10 nM.

On to `O=C(N[C@H]1CC[C@](O)(C(F)F)CC1)c1cnc2cc(C3CC3)ncc2c1` [Example 36, 7-Cyclopropyl-N-((1s,4s)-4-(difluoromethyl)-4-hydroxycyclohexyl)-1,6-naphthyridine-3-carboxamide], for which the IC50 was 100 to 1000 nM.

For `CC(C)(O)[C@H]1C[C@H](NC(=O)c2cnc3nc(C4CC4)ccc3c2)C1` [Example 47, 7-Cyclopropyl-N-(trans-3-(2-hydroxypropan-2-yl)cyclobutyl)-1,8-naphthyridine-3-carboxamide], the IC50 is 10 to 79.4 nM.

Turning to `O=C(N[C@H]1CCNC1=O)c1cnc2nc(C3CC3)c(Cl)cc2c1` [Example 71, (S)-6-Chloro-7-cyclopropyl-N-(2-oxopyrrolidin-3-yl)-1,8-naphthyridine-3-carboxamide], the IC50 is below 10 nM.
